# How the values were obtained:
# CYP1A2 = molecular target: T1, CYP1A2 (Homo sapiens, UniProt P05177); assay: in vitro; conditions: E. coli expressed CYP1A2, pH 7.4, probe CEC 5 μM
# T1 sequence (P05177 1-516): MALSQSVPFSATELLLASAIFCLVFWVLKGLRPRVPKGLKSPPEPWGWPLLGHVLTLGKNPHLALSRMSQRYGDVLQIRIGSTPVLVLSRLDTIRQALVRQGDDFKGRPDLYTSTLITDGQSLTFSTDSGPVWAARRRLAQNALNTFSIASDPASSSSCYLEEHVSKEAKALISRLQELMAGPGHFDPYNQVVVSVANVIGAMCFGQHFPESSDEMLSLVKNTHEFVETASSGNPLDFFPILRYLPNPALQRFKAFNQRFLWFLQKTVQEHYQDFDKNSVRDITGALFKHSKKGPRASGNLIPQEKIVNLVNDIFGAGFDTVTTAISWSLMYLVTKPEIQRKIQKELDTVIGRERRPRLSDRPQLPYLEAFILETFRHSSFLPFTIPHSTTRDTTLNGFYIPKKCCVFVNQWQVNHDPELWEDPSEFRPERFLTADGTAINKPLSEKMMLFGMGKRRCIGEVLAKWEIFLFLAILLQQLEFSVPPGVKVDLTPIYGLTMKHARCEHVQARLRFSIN
# Protocol: (§5) Inhibition of the metabolism of test compounds by different CYP P450 isoenzymes was determined using E. coli expressed proteins (3A4, 2C9, 2D6, 1A2, and 2C19) that convert their specific substrates into a fluorescent molecule (Table 6). This fluorescent molecule was measured using a fluorescent plate reader (Victor2 (Wallac) or Fluoroskan (Labsystems)). […] CYP P450 enzymes were prepared in house or commercially bought and stored at −80° C.
# (§6) The assay was performed in black 96 well Costar plates. Test compounds were added to a CYP P450 enzyme solution in the presence of an NADPH generating system. After 5 min of preincubation at 37° C., the freshly prepared, phosphate buffered (pH 7.4) substrate solution was added. Known CYP P450 inhibitors were used as positive controls, negative controls were run without CYP P450 enzyme. […] Reaction mixtures were incubated at 37° C. for 30 min (CYP3A4-BFC), 30 min (CYP3A4-BQ), 10 min (CYP3A4-DBF), 15 min (CYP1A2-CEC), 30 min (CYP2C9-MFC, CYP2C19-CEC), or 45 min (CYP2D6-AMMC), respectively. Then, the reaction was stopped by the addition of 200 μl acetonitrile, and the fluorescent signal was detected.
# (§7) Calculation of CYP P450 isoenzyme inhibition (% inh.):
# (§8) % activity=(100/(average positive control−average negative control))×(average sample−average negative control)
# CYP3A4 [1] = molecular target: T2, CYP3A4 (Homo sapiens, UniProt P08684); assay: CYP450 inhibition CDNA-CYP3A4-BFC; conditions: human, E. coli expressed CYP3A4, pH 7.4, probe BFC 150 μM
# Source text: (§1) Assay 4: CYP450 Inhibition
# CYP2C9 = CYP2C9 (Homo sapiens, UniProt P11712); assay: in vitro; conditions: human, pH 7.4
# Source text: as §1
# CYP3A4 [2] = molecular target: T2, CYP3A4; assay: in vitro; conditions: human, pH 7.4
# Source text: as §1
# [3] = Metabolic stability of test compounds (HLM15'); format: in vitro ADME, human; conditions: pH 7.4; human liver microsomes 1 mg/ml, 5 μM test compound, 15 min; read-out: Metabolic stability (HLM, % recovery after 15')
# Source text: Human liver tissue is rinsed in ice-cold 0.1 M Tris-HCl (pH 7.4) buffer to wash excess blood. Tissue is then blotted dry, weighed and chopped coarsely using surgical scissors. The tissue pieces are homogenized in 3 volumes of ice-cold 0.1 M phosphate buffer (pH 7.4) using either a Potter-S (Braun, Italy) equipped with a Teflon pestle or a Sorvall Omni-Mix homogenizer, for 7×10 sec. In both cases, the vessel is kept in/on ice during the homogenization process. Tissue homogenates are centrifuged at 9000×g for 20 min at 4° C. using a Sorvall centrifuge or Beckman Ultracentrifuge. The resulting supernatant can be stored at −80° C. and is designated ‘S9’. The S9 fraction is centrifuged at 100,000×g for 60 min at 4° C. using a Beckman ultracentrifuge. The resulting supernatant is carefully aspirated, aliquoted and designated ‘cytosol’. The pellet is re-suspended in 0.1 M phosphate buffer (pH 7.4) in a final volume of 1 ml per 0.5 g original tissue weight and designated ‘microsomes’. All sub-cellular fractions are aliquoted, immediately frozen in liquid nitrogen and stored at −80° C. until use.
# Heat-inactivated (10 min at 95° C.) ‘S9’ or microsomes were used for blank experiments. […] The reaction was incubated for 0 or 15 min. Next, the reaction was stopped by addition of 2 volumes of DMSO (or acetonitrile). Samples were centrifuged (10 min, 900×g) and analyzed by LC-MS.
# CYP2C19 = CYP2C19 (Homo sapiens, UniProt P33261); assay: in vitro; conditions: E. coli expressed CYP2C19, pH 7.4, probe CEC 25 μM
# Protocol: as §5, §6, §7, §8
# CYP2D6 = CYP2D6 (Homo sapiens, UniProt P10635); assay: in vitro; conditions: pH 7.4
# Protocol: as §5, §6, §7, §8
# [4] = system: wild-type HIV-1IIIB strain; assay: Antiviral activity, MT4 LTR-EGFP cellular assay; format: cell-based; conditions: Human immunodeficiency virus 1, 72 h; wild-type HIV-1 IIIB, MT4 LTR-EGFP cells, three days after infection; read-out: Antiviral activity IIIB (pEC50) (converted)
# Protocol: (§2) Assay 1 &2: Antiviral Activity/Toxicity
# The compounds of the present invention were tested for antiviral activity in a cellular assay, which was performed according to the following procedure.
# The human T-cell line MT4 is engineered with Green Fluorescent Protein (GFP) and an HIV-specific promoter, HIV-1 long terminal repeat (LTR). This cell line is designated MT4 LTR-EGFP, and can be used for the in vitro evaluation of anti-HIV activity of investigational compounds. In HIV-1 infected cells, the Tat protein is produced which upregulates the LTR promotor and finally leads to stimulation of the GFP reporter production, allowing measuring ongoing HIV-infection fluorometrically.
# (§3) The ratio of CC50 to EC50 is defined as the selectivity index (SI) and is an indication of the selectivity of the anti-HIV activity of the inhibitor. The ultimate monitoring of HIV-1 infection and cytotoxicity is done using a scanning microscope. Image analysis allows very sensitive detection of viral infection. Measurements are done before cell necrosis, which usually takes place about five days after infection, in particular measurements are performed three days after infection.
# (§4) A pEC50 value corresponds to −log10(EC50). A pCC50 value corresponds to −log10(CC50).
# CYP3A4 [5] = molecular target: T2, CYP3A4; assay: CYP450 inhibition CDNA-CYP3A4-BQ; conditions: human, E. coli expressed CYP3A4, pH 7.4, probe BQ 60 μM
# Source text: as §1
# [6] = Toxicity, mock-infected MT4 CMV-EGFP cells; format: cell-based, human; conditions: human, mock-infected MT4 CMV-EGFP cells; read-out: Toxicity MT4 (pCC50) (converted)
# Source text: as §2
# Analogously, MT4 cells are engineered with GFP and the constitutional cytomegalovirus (CMV) promotor. […] Cytotoxic investigational compounds reduce GFP levels of mock-infected MT4 CMV-EGFP cells.
# as §3, §4
# Sequence of CYP2C19 (P33261 whole entry): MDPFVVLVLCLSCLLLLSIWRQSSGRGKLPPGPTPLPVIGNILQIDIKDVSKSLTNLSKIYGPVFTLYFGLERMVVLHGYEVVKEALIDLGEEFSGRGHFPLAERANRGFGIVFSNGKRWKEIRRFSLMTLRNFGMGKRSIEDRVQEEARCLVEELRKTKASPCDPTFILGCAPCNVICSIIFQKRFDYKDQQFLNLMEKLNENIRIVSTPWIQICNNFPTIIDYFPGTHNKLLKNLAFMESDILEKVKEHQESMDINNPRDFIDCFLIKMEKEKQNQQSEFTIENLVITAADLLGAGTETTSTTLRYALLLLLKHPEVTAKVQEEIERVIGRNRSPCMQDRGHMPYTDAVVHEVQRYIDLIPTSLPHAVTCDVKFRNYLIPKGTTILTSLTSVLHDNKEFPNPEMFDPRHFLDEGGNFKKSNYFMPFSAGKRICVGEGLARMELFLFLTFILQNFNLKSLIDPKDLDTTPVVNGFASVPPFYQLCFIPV
# Sequence of CYP2C9 (P11712 whole entry): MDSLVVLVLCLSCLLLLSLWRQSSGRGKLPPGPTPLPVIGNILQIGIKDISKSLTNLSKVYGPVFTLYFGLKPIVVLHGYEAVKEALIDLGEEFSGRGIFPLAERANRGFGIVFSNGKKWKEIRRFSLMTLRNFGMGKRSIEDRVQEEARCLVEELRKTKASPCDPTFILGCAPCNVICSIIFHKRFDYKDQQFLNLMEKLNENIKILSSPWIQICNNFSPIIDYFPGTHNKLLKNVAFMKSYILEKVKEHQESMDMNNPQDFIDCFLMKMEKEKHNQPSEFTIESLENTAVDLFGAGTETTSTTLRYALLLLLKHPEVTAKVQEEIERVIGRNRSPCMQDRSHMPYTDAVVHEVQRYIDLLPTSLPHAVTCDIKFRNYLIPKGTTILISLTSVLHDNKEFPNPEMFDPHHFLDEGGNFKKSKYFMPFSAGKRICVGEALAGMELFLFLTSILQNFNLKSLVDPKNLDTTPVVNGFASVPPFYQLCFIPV
# Sequence of CYP2D6 (P10635 whole entry): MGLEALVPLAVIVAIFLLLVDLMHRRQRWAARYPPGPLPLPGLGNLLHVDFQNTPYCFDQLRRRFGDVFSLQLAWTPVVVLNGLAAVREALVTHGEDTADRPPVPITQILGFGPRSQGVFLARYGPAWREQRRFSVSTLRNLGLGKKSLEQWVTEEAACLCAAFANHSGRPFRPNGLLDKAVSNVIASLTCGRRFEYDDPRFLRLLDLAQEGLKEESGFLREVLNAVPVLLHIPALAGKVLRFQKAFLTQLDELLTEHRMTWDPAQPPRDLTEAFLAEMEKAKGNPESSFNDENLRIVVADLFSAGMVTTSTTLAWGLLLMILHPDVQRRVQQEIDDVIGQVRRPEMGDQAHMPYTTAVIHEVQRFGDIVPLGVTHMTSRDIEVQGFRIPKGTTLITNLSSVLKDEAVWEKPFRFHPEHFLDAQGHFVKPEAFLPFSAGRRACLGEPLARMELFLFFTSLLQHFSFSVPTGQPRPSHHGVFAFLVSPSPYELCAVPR
# T2 sequence (P08684 whole entry): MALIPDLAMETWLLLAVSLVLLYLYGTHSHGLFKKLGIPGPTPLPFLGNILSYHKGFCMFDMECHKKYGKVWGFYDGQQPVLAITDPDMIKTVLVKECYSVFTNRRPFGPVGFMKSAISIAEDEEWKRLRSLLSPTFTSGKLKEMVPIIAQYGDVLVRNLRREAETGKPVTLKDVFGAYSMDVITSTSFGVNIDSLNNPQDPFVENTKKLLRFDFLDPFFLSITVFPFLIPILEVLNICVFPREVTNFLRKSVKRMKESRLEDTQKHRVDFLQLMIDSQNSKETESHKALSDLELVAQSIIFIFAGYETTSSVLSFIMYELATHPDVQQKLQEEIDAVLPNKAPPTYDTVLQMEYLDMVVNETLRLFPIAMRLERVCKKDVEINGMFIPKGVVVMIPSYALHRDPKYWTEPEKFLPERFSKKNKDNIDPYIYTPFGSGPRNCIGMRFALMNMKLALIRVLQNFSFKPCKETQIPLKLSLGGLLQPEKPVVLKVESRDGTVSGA
SMILES,"inhibition at 15 min, 10 μM (CYP1A2)","inhibition at 30 min, 10 μM (CYP3A4 [1])","inhibition at 30 min, 10 μM (CYP2C9)","inhibition at 10 min, 10 μM (CYP3A4 [2])","recovery at 15 min, 5 μM [3]","inhibition at 30 min, 10 μM (CYP2C19)","inhibition at 45 min, 10 μM (CYP2D6)",EC50 [4],"inhibition at 30 min, 10 μM (CYP3A4 [5])",CC50 at 3 days [6]
"CC(C)CN(C[C@@H](O)[C@H](Cc1ccccc1)NC(=O)OCc1cncs1)C(=O)c1ccc2nc(N3CCN(C)CC3)oc2c1 [Compound C15, Thiazol-5-ylmethyl (2S,3R)-3-hydroxy-4-(N-isobutyl-2-(4-methylpiperazin-1-yl)benzo[d]oxazole-6-carboxamido)-1-phenylbutan-2-ylcarbamate]",18%,98%,96%,93%,25%,67%,97%,> 100 µM,79%,> 100 µM
"CC(C)CN(C[C@@H](O)[C@H](Cc1ccccc1)NC(=O)OCc1cncs1)C(=O)c1ccc2nc(N)sc2c1 [Compound C6, Thiazol-5-ylmethyl (2S,3R)-4-(2-amino-N-isobutylbenzo[d]thiazole-6-carboxamido)-3-hydroxy-1-phenylbutan-2-ylcarbamate]",36%,76%,99%,94%,70%,94%,83%,75.9 µM,85%,> 93.3 µM
"CC(C)CN(C[C@@H](O)[C@H](Cc1ccccc1)NC(=O)OCc1cncs1)C(=O)c1ccc2ncn(C)c2c1 [Compound C8, Thiazol-5-ylmethyl (2S,3R)-3-hydroxy-4-(N-isobutyl-1-methyl-1H-benzo[d]-imidazole-6-carboxamido)-1-phenylbutan-2-ylcarbamate]",4%,81%,92%,93%,57%,75%,12%,> 100 µM,72%,> 100 µM
"CC(C)CN(C[C@@H](O)[C@H](Cc1ccccc1)NC(=O)OCc1cncs1)C(=O)c1ccc2nc(N3CCCCC3)oc2c1 [Compound C3, Thiazol-5-ylmethyl (2S,3R)-3-hydroxy-4-(N-isobutyl-2-(piperidin-1y1)-benzo[d]oxazole-6-carboxamido)-1-phenylbutan-2-ylcarbamate]",19%,95%,100%,95%,71%,90%,45%,36.3 µM,80%,32.4 µM

# Second part, led by results:
"inhibition at 15 min, 10 μM (CYP1A2)","inhibition at 30 min, 10 μM (CYP3A4 [1])","inhibition at 30 min, 10 μM (CYP2C9)","inhibition at 10 min, 10 μM (CYP3A4 [2])","recovery at 15 min, 5 μM [3]","inhibition at 30 min, 10 μM (CYP2C19)","inhibition at 45 min, 10 μM (CYP2D6)",EC50 [4],"inhibition at 30 min, 10 μM (CYP3A4 [5])",SMILES,CC50 at 3 days [6]
18%,91%,93%,95%,13%,70%,99%,49 µM,71%,"CCN(C)c1nc2ccc(C(=O)N(CC(C)C)C[C@@H](O)[C@H](Cc3ccccc3)NC(=O)OCc3ccncc3)cc2o1 [Compound C10, Pyridin-4-ylmethyl (2S,3R)-4-(2-(ethyl(methyl)amino)-N-isobutylbenzo[d]-oxazole-6-carboxamido)-3-hydroxy-1-phenylbutan-2-ylcarbamate]",46.8 µM
7%,96%,96%,96%,57%,101%,59%,60.3 µM,76%,"C#CCN(C[C@@H](O)[C@H](Cc1ccccc1)NC(=O)OCc1cncs1)C(=O)c1ccc2nc(N(C)CC)oc2c1 [Compound C35, Thiazol-5-ylmethyl (2S,3R)-4-(2-(ethyl(methyl)amino)-N-(prop-2-ynyl)benzo[d]oxazole-6-carboxamido)-3-hydroxy-1-phenylbutan-2-ylcarbamate]",75.9 µM
0%,94%,89%,91%,60%,79%,56%,> 100 µM,74%,"Cc1nc2ccc(C(=O)N(CC(C)C)C[C@@H](O)[C@H](Cc3ccccc3)NC(=O)OCc3cncs3)cc2o1 [Compound C40, Thiazol-5-ylmethyl (2S,3R)-3-hydroxy-4-(N-isobutyl-2-methylbenzo[d]-oxazole-6-carboxamido)-1-phenylbutan-2-ylcarbamate]",> 100 µM
6%,90%,99%,94%,58%,97%,32%,> 100 µM,77%,"CCN(C[C@@H](O)[C@H](Cc1ccccc1)NC(=O)OCc1cncs1)C(=O)c1ccc2nc(N(C)CC)oc2c1 [Compound C29, Thiazol-5-ylmethyl (2S,3R)-4-(N-ethyl-2-(ethyl(methyl)amino)benzo[d]-oxazole-6-carboxamido)-3-hydroxy-1-phenylbutan-2-ylcarbamate]",81.3 µM
0%,93%,34%,91%,59%,36%,89%,> 100 µM,80%,"CC(C)CN(C[C@@H](O)[C@H](Cc1ccccc1)NC(=O)OCc1cncs1)C(=O)c1ccc2nc(NCCN(C)C)oc2c1 [Compound C16, Thiazol-5-ylmethyl (2S,3R)-4-(2-(2-(dimethylamino)ethylamino)-N-isobutyl-benzo[d]oxazole-6-carboxamido)-3-hydroxy-1-phenylbutan-2-ylcarbamate]",> 100 µM
